Measured values: PubChem BioAssay AID1963980 (Molecular Pharmacology Branch, DTP, NCI, 2024)

Tested on: 475296-252-R-J1-PDC spheroid viability
Assay: Anticancer human tumor 475296-252-R-J1-PDC patient-derived rectal carcinoma cell line growth inhibition [PI3K]
Settings: spheroids with HUVEC and MSC; for IC50: curve of first compound; for viability, T/C: stronger effect = lower value; active = viability on the fitted dose curve at most 10% of control; inactive = the rest
Procedure, shortened: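 Tumor cells grown as multi-cell spheroids with HUVEC endothelial cells and MSC fibroblast-like stroma were treated with targeted agents combined with inavolisib, alpelisib, duvelisib or copanlisib. Doses fell in half-log steps from near clinical Cmax, else from 10 microM. Viability was measured.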

[1] = second compound 0.00316 µM, first compound 0.0316 µM
[2] = second compound 0.00316 µM, first compound 0.1 µM
[3] = second compound 0.00316 µM, first compound 0.316 µM
[4] = second compound 0.00316 µM, first compound 1 µM
[5] = second compound 0.00316 µM, first compound 3.16 µM
[6] = second compound 0.00316 µM, first compound 10 µM
[7] = second compound 0.01 µM, first compound 0.0316 µM
[8] = second compound 0.01 µM, first compound 0.1 µM
[9] = second compound 0.01 µM, first compound 0.316 µM
[10] = second compound 0.01 µM, first compound 1 µM
[11] = second compound 0.01 µM, first compound 3.16 µM
[12] = second compound 0.01 µM, first compound 10 µM
[13] = second compound 0.0316 µM, first compound 0.0316 µM
[14] = second compound 0.0316 µM, first compound 0.1 µM
[15] = second compound 0.0316 µM, first compound 0.316 µM
[16] = second compound 0.0316 µM, first compound 1 µM
[17] = second compound 0.0316 µM, first compound 3.16 µM
[18] = second compound 0.0316 µM, first compound 10 µM
[19] = second compound 0.1 µM, first compound 0.0316 µM
[20] = second compound 0.1 µM, first compound 0.1 µM
[21] = second compound 0.1 µM, first compound 0.316 µM
[22] = second compound 0.1 µM, first compound 1 µM
[23] = second compound 0.1 µM, first compound 3.16 µM
[24] = second compound 0.1 µM, first compound 10 µM
[25] = second compound 0.316 µM, first compound 0.0316 µM
[26] = second compound 0.316 µM, first compound 0.1 µM
[27] = second compound 0.316 µM, first compound 0.316 µM
[28] = second compound 0.316 µM, first compound 1 µM
[29] = second compound 0.316 µM, first compound 3.16 µM
[30] = second compound 0.316 µM, first compound 10 µM
[31] = second compound 1 µM, first compound 0.0316 µM
[32] = second compound 1 µM, first compound 0.1 µM
[33] = second compound 1 µM, first compound 0.316 µM
[34] = second compound 1 µM, first compound 1 µM
[35] = second compound 1 µM, first compound 3.16 µM
[36] = second compound 1 µM, first compound 10 µM
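Also: spheroids exposed to agents for seven days before readout.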

CC(C)NCC(C(=O)N1CCN(c2ncnc3c2C(C)CC3O)CC1)c1ccc(Cl)cc1 (stereo unspecified) + CC(Nc1ccc2c(c1)OCCn1cc(N3C(=O)OCC3C(F)F)nc1-2)C(N)=O
inactive: viability, T/C [1] 85.7% | viability, T/C [2] 86.5% | viability, T/C [3] 95.3% | viability, T/C [4] 75.7% | viability, T/C [5] 67.6% | viability, T/C [6] 59.3% | viability, T/C [7] 82.7% | viability, T/C [8] 78.5% | viability, T/C [9] 88.3% | viability, T/C [10] 67.6% | viability, T/C [11] 65.3% | viability, T/C [12] 67.5% | viability, T/C [13] 92.7% | viability, T/C [14] 94.3% | viability, T/C [15] 91.4% | viability, T/C [16] 95.4% | viability, T/C [17] 63.5% | viability, T/C [18] 62.4% | viability, T/C [19] 84.2% | viability, T/C [20] 86.4% | viability, T/C [21] 90.5% | viability, T/C [22] 92.5% | viability, T/C [23] 78.4% | viability, T/C [24] 57.8% | viability, T/C [25] 84.9% | viability, T/C [26] 80% | viability, T/C [27] 84.9% | viability, T/C [28] 82.6% | viability, T/C [29] 87.4% | viability, T/C [30] 66.2% | viability, T/C [31] 93.5% | viability, T/C [32] 86.2% | viability, T/C [33] 83.4% | viability, T/C [34] 77.8% | viability, T/C [35] 77% | viability, T/C [36] 67.8%
> 10 µM: IC50 (second compound 0.00316 µM) | IC50 (second compound 0.01 µM) | IC50 (second compound 0.0316 µM) | IC50 (second compound 0.1 µM) | IC50 (second compound 0.316 µM) | IC50 (second compound 1 µM)

CCN1CCN(Cc2ccc(Nc3ncc(F)c(-c4cc(F)c5nc(C)n(C(C)C)c5c4)n3)nc2)CC1 + CC(Nc1ccc2c(c1)OCCn1cc(N3C(=O)OCC3C(F)F)nc1-2)C(N)=O
inactive: viability, T/C (second compound 0.00316 µM, first compound 0.00316 µM) 97.2% | viability, T/C (second compound 0.00316 µM, first compound 0.01 µM) 82.2% | viability, T/C [1] 94% | viability, T/C [2] 86.2% | viability, T/C [3] 101% | viability, T/C [4] 89.3% | viability, T/C (second compound 0.01 µM, first compound 0.00316 µM) 94.1% | viability, T/C (second compound 0.01 µM, first compound 0.01 µM) 87.8% | viability, T/C [7] 95.6% | viability, T/C [8] 85.1% | viability, T/C [9] 89.5% | viability, T/C [10] 87.9% | viability, T/C (second compound 0.0316 µM, first compound 0.00316 µM) 95.3% | viability, T/C (second compound 0.0316 µM, first compound 0.01 µM) 92.3% | viability, T/C [13] 86.7% | viability, T/C [14] 99.3% | viability, T/C [15] 87.6% | viability, T/C [16] 81.8% | viability, T/C (second compound 0.1 µM, first compound 0.00316 µM) 81.3% | viability, T/C (second compound 0.1 µM, first compound 0.01 µM) 111% | viability, T/C [19] 86.6% | viability, T/C [20] 86% | viability, T/C [21] 94.3% | viability, T/C [22] 71.8% | viability, T/C (second compound 0.316 µM, first compound 0.00316 µM) 85% | viability, T/C (second compound 0.316 µM, first compound 0.01 µM) 96.1% | viability, T/C [25] 90.6% | viability, T/C [26] 86.9% | viability, T/C [27] 85% | viability, T/C [28] 71.2% | viability, T/C (second compound 1 µM, first compound 0.00316 µM) 83.3% | viability, T/C (second compound 1 µM, first compound 0.01 µM) 75.5% | viability, T/C [31] 80.5% | viability, T/C [32] 76.9% | viability, T/C [33] 79.1% | viability, T/C [34] 64.2%
> 1 µM: IC50 (second compound 0.00316 µM) | IC50 (second compound 0.01 µM) | IC50 (second compound 0.0316 µM) | IC50 (second compound 0.1 µM) | IC50 (second compound 0.316 µM) | IC50 (second compound 1 µM)

Cn1ncc(Cl)c1-c1cc(C(=O)NC(CN)Cc2cccc(F)c2)sc1Cl (stereo unspecified) + CC(Nc1ccc2c(c1)OCCn1cc(N3C(=O)OCC3C(F)F)nc1-2)C(N)=O
5.46 µM: IC50 (second compound 1 µM)
> 10 µM: IC50 (second compound 0.00316 µM) | IC50 (second compound 0.01 µM) | IC50 (second compound 0.0316 µM) | IC50 (second compound 0.1 µM) | IC50 (second compound 0.316 µM)
inactive: viability, T/C [1] 87.7% | viability, T/C [2] 68.7% | viability, T/C [3] 76.2% | viability, T/C [4] 63.4% | viability, T/C [5] 65% | viability, T/C [6] 67.6% | viability, T/C [7] 105% | viability, T/C [8] 78.6% | viability, T/C [9] 74.1% | viability, T/C [10] 73% | viability, T/C [11] 73.8% | viability, T/C [12] 70.5% | viability, T/C [13] 92.6% | viability, T/C [14] 88.1% | viability, T/C [15] 63.7% | viability, T/C [16] 67.4% | viability, T/C [17] 52.8% | viability, T/C [18] 60.5% | viability, T/C [19] 90.7% | viability, T/C [20] 104% | viability, T/C [21] 86.1% | viability, T/C [22] 69.3% | viability, T/C [23] 59.4% | viability, T/C [24] 52.9% | viability, T/C [25] 90.7% | viability, T/C [26] 94.3% | viability, T/C [27] 85.7% | viability, T/C [28] 69.5% | viability, T/C [29] 72.8% | viability, T/C [30] 51.5% | viability, T/C [31] 92.3% | viability, T/C [32] 79% | viability, T/C [33] 84.1% | viability, T/C [34] 76.1% | viability, T/C [35] 62% | viability, T/C [36] 36.6%
